Columns and labels:
[1] = test system: platelets in whole blood; experiment: Collagen-induced platelet aggregation in whole blood (platelet counting); type: cell-based, human; settings: collagen 0.125-0.5 μg/ml, A1 dimer 0.3 mM; for collagen-induced platelet aggregation: FIG. 2, 4 and 10 min, ASA 100 μM
Procedure: Platelet aggregation of A1 dimer [A1D] was measured using a platelet counting technique, and formation of platelet/monocyte conjugates (P/M) and platelet/neutrophil conjugates (PIN) by flow cytometry. In later experiments the activation state of platelets associated with leukocytes (CD62P) was also measured and also the activation state of the leukocytes themselves (CD11b).
A1 dimer [A1D] was dissolved in ethanol. Once in solution, further dilution with saline was possible. Hirudin, (Revasc™) was obtained from Novartis (Basel, Switzerland) and was stored as a 5 mg/ml solution in saline in a glass vial at −20° C. Collagen (Nycomed) was from Axis Shield Diagnostics (Dundee, UK). Concentrations were prepared from the stock solution (1 mg/ml) using the isotonic glucose buffer supplied by the manufacturer. Aspirin (acetyl salicylic acid-ASA), adenosine diphosphate (ADP), platelet activating factor (PAF), arachidonic acid (AA) and epinephrine were from Sigma. Fixing solution consisted of 140 mM NaCl containing 0.16% w/v formaldehyde, 4.6 mM Na2EDTA, 4.5 mM Na2HP04 and 1.6 mM KH2PO4, pH 7.4.
Blood samples were studied using the Multi-Sample Agitator (MSA) produced by the Medical Engineering Unit (University of Nottingham). The MSA is used to maintain blood samples at 37° C. and to agitate small samples of blood at a stir speed of 1,000 rpm as required. […]
Following the 30 min pre-incubation, aliquots of blood (480 μl) were dispensed into small polystyrene tubes each containing a stir bar and stirred for 2 min in the MSA. […] The platelet count in the fixed samples was determined using the UltraFlo-100 Whole Blood Platelet Counter. Platelet aggregation was calculated as the percentage loss of single platelets with reference to the platelet count of the EDTA sample.
Blood was obtained from three different volunteers and the platelet aggregation and platelet/leukocyte conjugate formation was measured in response to collagen (0, 0.125, 0.25 and 0.5 μg/ml). […] Aggregation was measured at 4 and 10 min following agonist addition and platelet/leukocyte conjugate formation only at 10 min. […]

[2] = test system: platelet/monocyte and platelet/neutrophil conjugates in whole blood; experiment: Platelet-leukocyte conjugate formation (P/M, P/N) by flow cytometry; type: cell-based, human; settings: FIG. 2; 10 min; collagen 0.125-0.5 μg/ml; ASA 100 μM
Procedure: Platelet aggregation of A1 dimer [[MUT]] was measured using a platelet counting technique, and formation of platelet/monocyte conjugates (P/M) and platelet/neutrophil conjugates (PIN) by flow cytometry. In later experiments the activation state of platelets associated with leukocytes (CD62P) was also measured and also the activation state of the leukocytes themselves (CD11b). Blood was obtained from healthy volunteers, who denied taking any aspirin or NSAIDS in the previous 10 days. This blood was dispensed into graduated polystyrene tubes that contained hirudin (final concentration 50 μg/ml) and a small volume of the flavanol under investigation or ethanol as control. The final concentration of ethanol in the blood was always 0.3%. […] Platelet-leukocyte conjugate formation was measured in the same stirred samples used to measure platelet aggregation. […] Fluorescence parameters were acquired with logarithmic amplification. Platelet monocyte (P/M) and platelet neutrophil (P/N) conjugates were quantified as median CD42a (FITC) fluorescence of the monocyte (P/M mf) or neutrophil population (PIN mf). Leukocyte activation was measured by CD11b (AlexaFluor647) expression (CD11b-M for monocytes and CD11b-N for neutrophils). Platelet activation (P-selectin expression) was measured by CD62P (PE) positivity of the platelets associated with leukocytes as (CD62P-M on P/M and CD62P-N on PIN). […]

[3] = test system: CD11b on monocytes and neutrophils; experiment: Leukocyte activation (CD11b expression) by flow cytometry; type: cell-based, human; settings: FIG. 3; 10 min; collagen 0.125-0.5 μg/ml; A1 dimer 0.3 mM, aspirin 100 μM
Procedure: Platelet-leukocyte conjugate formation was measured in the same stirred samples used to measure platelet aggregation. Sub samples were taken 4 min or 10 min following the addition of agonist and transferred into the appropriate antibody or antibody mixture. These were then incubated in the dark at room temperature for not less than 20 min. Following red cell lysis and a washing procedure the cell suspensions were applied to either the FACScan or the LSRII flow cytometer. Leukocytes were identified by logical gating from dot plots of forward scatter (cell size) and side scatter (cell granularity) profiles acquired with linear amplification. […] Fluorescence parameters were acquired with logarithmic amplification. Platelet monocyte (P/M) and platelet neutrophil (P/N) conjugates were quantified as median CD42a (FITC) fluorescence of the monocyte (P/M mf) or neutrophil population (PIN mf). Leukocyte activation was measured by CD11b (AlexaFluor647) expression (CD11b-M for monocytes and CD11b-N for neutrophils). Platelet activation (P-selectin expression) was measured by CD62P (PE) positivity of the platelets associated with leukocytes as (CD62P-M on P/M and CD62P-N on PIN). […]
Blood was obtained from three different volunteers and the platelet aggregation (4 min) and platelet/leukocyte conjugate formation (10 min) was measured in response to collagen (0, 0.125, 0.25 and 0.5 μg/ml). […]

[4] = test system: rabbit aortic rings; experiment: Ex vivo endothelium-dependent relaxation of NE pre-constricted rabbit aortic rings; settings: for relaxation in pre-contracted aortic rings, dose dependence: FIGS. 1A-1C, 10^-9 to 10^-4 M cumulative; for vasorelaxation, percent relaxation of NE constricted rings: concentration 10^−4M, +/−SE; for relaxant potency compared with positive control acetylcholine: significant at p=0.005 for A1 dimer
Procedure: Effect of A-type procyanidins on endothelium-dependent relaxation was tested in an ex vivo experiment performed as previously described by Karim et al., J. Nutrl Suppl., 130 (8S): […]-[…] (2000), the relevant portions of which are hereby incorporated herein by reference. The advantage of using this method is that it assesses functional cardiovascular end points. […] In summary, rabbit aortic rings were obtained from male New Zealand White rabbits. Following isolation, the rings were mounted in oxygenated Kreb's buffer, and pre-constricted with NE (10^-6 M). When the tension had reached a steady state, cumulative concentrations of the test compounds were applied (10^-9 to 10^-4 M). A positive control acetylcholine (10^-6M) and a negative control L-NAME were included in the experiment. Use of L-NAME, which is a NO synthase (NOS) inhibitor, allows for differentiating between endothelium dependent and endothelium independent relaxation events. Denuding of aortic rings represent a similar control. 400 U/mL of catalase was added into the aortic bath prior to the addition of each of the test compounds to ensure that the observed effects are not caused by hydrogen peroxide (H202) generation in the culture medium. The relaxation response was measured as a function of the decrease in the tension (g) exerted by the aortic rings over time. Data obtained were expressed as a percent relaxation of the norepinephrine (NE) constricted rings. The same statistical approach as described above was used. Dose response curves were obtained by plotting the average percent relaxation (+/-SE) against the concentrations used.

[5] = test system: HUVECs; experiment: MTT reduction, toxic effects on HUVECs; type: cell-based, human; settings: acute effect test
Procedure: (§1) Test compounds were evaluated with respect to their potential to acutely (2 hours) and chronically (5 doses given in a 24 h period) modulate NO production. Positive controls (acetylcholine and/or histamine) and negative control L-NNMA (NO synthase inhibitor) were included in all experiments. Cell counts and total protein were used to assess intra-assay variation. Potential toxic effects of tested compounds were also monitored (MTT reduction was measured).
(§2) For the acute effect test, HUVECs were incubated with a single dose of A2 dimer and A-type trimer for 2 and 24 hours at concentrations of 100 nM, 1 μM, and 10 μM at 37 C and 5% CO2. No effect was observed on NO production after 2 hours.

[6] = test system: human umbilical vein endothelial cell (HUVEC); experiment: NO production (NOx) in serum-free HUVEC culture; type: cell-based
Procedure: The compounds obtained as described in Example 1, were investigated for their effect on nitric oxide (NO) production and vasorelaxation using serum-free human umbilical vein endothelial cell (HUVEC) culture system in vitro and rabbit aortic ring model ex vivo, respectively. NO production by endothelial cells and relaxation of pre-constricted aortic rings are two main markers for evaluating cardiovascular effects of test compounds.
HUVECs obtained from a single donor were cultured in serum free, low protein (0.5 g/l), antibiotic-free cell culture medium supplemented with essential growth factors, nutrients and minerals. […] The cell culture medium was substituted with apo-transferrin, superoxide dismutase, and catalase to exclude secondary effects of test compounds involving their auto-oxidation mediated hydrogen peroxide formation.
as §1
NO production was evaluated by measuring the total amount of all major nitric oxide end products (NOx, including nitrate, nitrite, nitrosothiols) present in the cell culture medium. […] The amount of NO released from the culture medium was subsequently evaluated by measuring the chemiluminescence emitted during the stoichiometrical reaction between ozone and NO using NO Analyzer (Sievers Instruments, Inc. Boulder, Colo.).
The data presented herein were obtained from three experiments and were expressed as the concentration of NO present (in μmol/l) (as NOx) in the cell culture medium+/−standard deviation (SD). The data were corrected for the NOx intrinsically present in the fully supplemented cell culture medium and normalized with respect ot the volume of media from which the ample was drawn. Data were analyzed using Student's t-test with a 95% level of confidence. P values equal to or less than 0.005 were defined as statistically significant.
as §2
For the chronic effect test, HUVECs were incubated with 5 subsequent doses of test compounds, each for 24 hours. After each 24 hour treatment, culture medium was replaced. A2 dimer and A-type trimer were tested.

[7] = experimental animal studies; cited from earlier work
[8] = target: Leukemia virus reverse transcriptase (Moloney murine leukemia virus, UniProt P03355); settings: cited from earlier work
[9] = acute test, single dose, after 2 hours, 100 nM, 1 μM and 10 μM
[10] = acute test, single dose, after 24 hours, 1 μM
[11] = acute test, single dose, after 24 hours, 10 μM, not statistically significant
[12] = typical response of positive control

## CC(=O)Oc1ccccc1C(=O)O [ASA, acetyl salicylic acid, reference compound]
[1]
  collagen-induced platelet aggregation: effectively inhibited
[2]
  platelet/monocyte conjugates (P/M): effectively inhibited
  platelet/neutrophil conjugates (P/N): effectively inhibited
[3]
  leukocyte activation (CD11b): no effect

## Oc1cc(O)c2c(c1)O[C@@]1(c3ccc(O)c(O)c3)Oc3cc(O)c4c(c3[C@@H]2[C@H]1O)O[C@H](c1ccc(O)c(O)c1)[C@@H](O)C4 [A1 dimer, epicatechin-(4β→8; 2β→O→7)-catechin]
[1]
  collagen-induced platelet aggregation: inhibited
[1]; FIG. 3, 4 min
  collagen induced aggregation: inhibited
[4]
  relaxation in pre-contracted aortic rings, dose dependence: dose-dependent relaxation
  vasorelaxation, percent relaxation of NE constricted rings: 93.20+/−3.46%
  relaxant potency compared with positive control acetylcholine: more potent relaxants that the positive control
[3]
  leukocyte activation (CD11b): did not inhibit

## Oc1cc(O)c2c(c1)O[C@@]1(c3ccc(O)c(O)c3)Oc3cc(O)c4c(c3[C@@H]2[C@H]1O)O[C@H](c1ccc(O)c(O)c1)[C@H](O)C4 [A2 dimer, epicatechin-(4β→8; 2β→O→7)-epicatechin]
[5]
  toxic effects, MTT assay: did not have toxic effects
[4]
  relaxation in pre-contracted aortic rings, dose dependence: dose-dependent relaxation
  vasorelaxation, percent relaxation of NE constricted rings: 85.00+/−2.91%
  relaxant potency compared with positive control acetylcholine: more potent relaxants that the positive control
[6]; [9]
  effect on NO production: No effect
[6]; [10]
  effect on NO production: no effect
[6]; [11]
  effect on NO production: increased NO production above the control level

## Oc1cc(O)c2c(c1)O[C@@]1(c3ccc(O)c(O)c3)Oc3cc(O)c4c(c3[C@@H]2[C@H]1O)O[C@H](c1ccc(O)c(O)c1)[C@@H](O)C4c1c(O)cc(O)c2c1CC(c1ccc(O)c(O)c1)C(O)C2 (some centres unmarked) [A-type trimer]
[5]
  toxic effects, MTT assay: did not have toxic effects
[4]
  relaxation in pre-contracted aortic rings, dose dependence: dose-dependent relaxation
  vasorelaxation, percent relaxation of NE constricted rings: 56.5+/−16.56%
[6]; [9]
  effect on NO production: No effect
[6]; [10]
  effect on NO production: no effect
[6]; [11]
  effect on NO production: increased NO production above the control level
[6]; chronic test, 5 subsequent doses, each for 24 hours, p=0.041
  effect on NO production: statistically significant increase in NO production

## O=c1c(O)c(-c2ccc(O)c(O)c2)oc2cc(O)cc(O)c12 [quercetin]
[7]
  anticarcinogenic activity: anticarcinogenic activity

## Oc1cc(O)c2c(c1)O[C@H](c1ccc(O)c(O)c1)[C@@H](O)C2 [(+)-catechin]
[8]
  inhibition of Leukemia virus reverse transcriptase activity: inhibit

## CC(=O)OCC[N+](C)(C)C [Acetylcholine, acetylcholine, reference compound]
[4]; [12]
  concentration producing a relaxation response: 10^−7 M
  concentration reaching maximal relaxation: 10^−6 M

## Oc1cc(O)c2c(c1)O[C@H](c1ccc(O)c(O)c1)[C@H](O)C2 [(−)-epicatechin]
[8]
  inhibition of Leukemia virus reverse transcriptase activity: inhibit

Source: patent US20190269715A1, “COMPOSITIONS AND METHOD OF USE OF A-TYPE PROCYANIDINS” (MARS, INCORPORATED, priority 2004, published 2019)
